Results published in US9221795B2, “Phosphatidylinositol 3-kinase inhibitors” (Gilead Sciences, Inc., priority 2013, dated 2015).

Key:
[1] = target: PI3Kδ (Homo sapiens (Human), UniProt O00329); assay: Enzymatic activity of PI3K isoforms, TR-FRET assay (PI3Kδ); type: biochemical; conditions: 2× Km ATP, geometric mean if more than one value
Method in brief: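 Recombinant heterodimeric PI3Kβ or PI3Kδ (25-50 pM) was run with 2 μM PIP2 and 2× Km ATP (75-500 μM) at pH 7.4, for 30 min at 25° C. PIP3 formation was detected by TR-FRET displacement of labeled PIP3 from Eu-GRP-1. IC50 values in nM come from four-parameter fits, as geometric means.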

[2] = target: PI3Kβ (Homo sapiens (Human), UniProt P42338); assay: Enzymatic activity of PI3K isoforms, TR-FRET assay (PI3Kβ); type: biochemical; conditions: 2× Km ATP, geometric mean if more than one value
Protocol: Enzymatic activity of the class I PI3K isoforms in the presence of the compounds of Table 1 and Compounds X, Y and Z was measured using a time-resolved fluorescence resonance energy transfer (TR-FRET) assay. The TR-FRET assay was used to monitor formation of the product 3,4,5-inositol triphosphate molecule (PIP3) as it competed with fluorescently labeled PIP3 for binding to the GRP-1 pleckstrin homology domain protein. An increase in […] product results in a decrease in TR-FRET signal as the labeled fluorophore is displaced from the GRP-1 protein binding site.
Class I PI3K isoforms were expressed and purified as heterodimeric recombinant proteins. All assay reagents and buffers for the TR-FRET assay were purchased from Millipore. PI3K isoforms were assayed under initial rate conditions in the presence of 25 mM Hepes (pH 7.4), and 2× Km ATP (75-500 μM), 2 μM PIP2, 5% glycerol, 5 mM MgCl2, 50 mM NaCl, 0.05% (v/v) Chaps, 1 mM dithiothreitol, 1% (v/v) DMSO at the following concentrations for each isoforms: PI3Kα, PI3Kβ, and PI3Kδ between 25 and 50 pM, and PI3Kγ at 2 nM. After an assay reaction time of 30 minutes at 25° C., reactions were terminated with a final concentration of 10 mM EDTA, 10 nM labeled-PIP3, and 35 nM Europium labeled GRP-1 detector protein before reading TR-FRET on an Envision plate reader (Ex: 340 nm; Em: 615/665 nm; […] delay and 500 μs read window).
Data were normalized based on positive ([…] wortmanin) and negative (DMSO) controls. α, β, δ, and γ IC50 values were calculated from the fit of the dose-response curves to a four-parameter equation. All IC50 values represent geometric mean values if more than one value was obtained. IC50 values were reported in units of nM.

[3] = Hepatocyte stability (parent drug disappearance in cryopreserved hepatocytes); type: in vitro ADME, human; conditions: human, cryopreserved human hepatocytes, 2 μM substrate, 37° C.; Table 2a
Method in brief: (§1)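 Test article at 2 μM incubated in duplicate with 1 million hepatocytes/mL at 37 °C, 5% CO2, humidified. Parent loss tracked by LC/MS at 0, 1, 2 and 4 h, giving half-life (t1/2) in hours.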

[4] = system: basophils; assay: Basophil activation in human whole blood (Flow2 CAST kit, CD63 flow cytometry); type: cell-based; conditions: Homo sapiens, human whole blood, basophils activated with anti-FcεRI mAb or fMLP, percent CD63 positive cells
[5] = system: cryopreserved human hepatocytes; assay: Hepatocyte stability (parent drug disappearance in cryopreserved hepatocytes); type: in vitro ADME; conditions: human hepatocytes, 2 μM substrate, 37° C.
Method in brief: as §1

PI3Kδ, sequence (O00329 whole entry, canonical isoform): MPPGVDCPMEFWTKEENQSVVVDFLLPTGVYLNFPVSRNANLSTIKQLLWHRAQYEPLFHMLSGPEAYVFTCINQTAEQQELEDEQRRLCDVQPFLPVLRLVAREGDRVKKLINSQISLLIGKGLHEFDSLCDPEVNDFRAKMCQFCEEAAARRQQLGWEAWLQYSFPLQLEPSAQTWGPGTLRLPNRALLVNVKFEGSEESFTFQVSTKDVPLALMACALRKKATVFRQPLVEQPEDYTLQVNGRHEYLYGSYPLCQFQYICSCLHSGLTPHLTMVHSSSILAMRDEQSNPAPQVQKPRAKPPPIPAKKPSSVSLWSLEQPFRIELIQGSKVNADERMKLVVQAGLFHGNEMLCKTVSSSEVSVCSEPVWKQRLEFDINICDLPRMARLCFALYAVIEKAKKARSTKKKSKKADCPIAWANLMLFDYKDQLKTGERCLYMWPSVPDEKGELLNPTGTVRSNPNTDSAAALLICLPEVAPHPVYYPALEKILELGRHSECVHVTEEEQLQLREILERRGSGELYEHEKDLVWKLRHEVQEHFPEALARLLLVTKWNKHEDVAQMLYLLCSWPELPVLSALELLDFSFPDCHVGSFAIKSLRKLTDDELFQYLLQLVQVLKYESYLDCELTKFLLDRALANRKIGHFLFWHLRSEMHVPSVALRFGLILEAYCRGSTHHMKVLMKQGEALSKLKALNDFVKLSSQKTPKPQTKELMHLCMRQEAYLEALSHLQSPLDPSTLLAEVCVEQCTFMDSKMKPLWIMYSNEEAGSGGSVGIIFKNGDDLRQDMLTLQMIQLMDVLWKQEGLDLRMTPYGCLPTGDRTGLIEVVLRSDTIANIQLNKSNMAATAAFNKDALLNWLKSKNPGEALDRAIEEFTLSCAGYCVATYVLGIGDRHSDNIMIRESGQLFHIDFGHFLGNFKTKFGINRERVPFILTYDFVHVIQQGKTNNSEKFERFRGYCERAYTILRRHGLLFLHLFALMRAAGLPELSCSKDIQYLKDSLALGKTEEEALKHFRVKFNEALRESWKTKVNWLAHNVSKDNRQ
PI3Kδ, sequence (P27986 whole entry partner, canonical isoform): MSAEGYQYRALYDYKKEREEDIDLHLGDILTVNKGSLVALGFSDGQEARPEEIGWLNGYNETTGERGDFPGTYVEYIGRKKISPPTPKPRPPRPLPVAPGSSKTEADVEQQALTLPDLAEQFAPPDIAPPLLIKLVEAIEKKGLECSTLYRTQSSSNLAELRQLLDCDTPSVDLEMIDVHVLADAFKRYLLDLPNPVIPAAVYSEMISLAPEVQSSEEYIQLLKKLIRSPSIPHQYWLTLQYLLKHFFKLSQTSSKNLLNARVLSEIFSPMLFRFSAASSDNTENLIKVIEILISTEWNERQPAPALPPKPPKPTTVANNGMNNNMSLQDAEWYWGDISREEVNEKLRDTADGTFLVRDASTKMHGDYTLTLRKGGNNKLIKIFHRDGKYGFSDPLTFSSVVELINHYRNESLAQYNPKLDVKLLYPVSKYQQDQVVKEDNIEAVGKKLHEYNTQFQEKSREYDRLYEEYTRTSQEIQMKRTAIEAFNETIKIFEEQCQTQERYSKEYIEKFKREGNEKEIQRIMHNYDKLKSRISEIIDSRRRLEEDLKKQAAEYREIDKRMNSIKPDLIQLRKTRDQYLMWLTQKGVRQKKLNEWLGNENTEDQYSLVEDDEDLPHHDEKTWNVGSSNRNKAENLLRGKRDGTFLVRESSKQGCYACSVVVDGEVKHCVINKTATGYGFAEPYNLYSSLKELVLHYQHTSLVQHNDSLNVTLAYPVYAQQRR
PI3Kβ, sequence (P42338 whole entry, the tested form may be a part, canonical isoform): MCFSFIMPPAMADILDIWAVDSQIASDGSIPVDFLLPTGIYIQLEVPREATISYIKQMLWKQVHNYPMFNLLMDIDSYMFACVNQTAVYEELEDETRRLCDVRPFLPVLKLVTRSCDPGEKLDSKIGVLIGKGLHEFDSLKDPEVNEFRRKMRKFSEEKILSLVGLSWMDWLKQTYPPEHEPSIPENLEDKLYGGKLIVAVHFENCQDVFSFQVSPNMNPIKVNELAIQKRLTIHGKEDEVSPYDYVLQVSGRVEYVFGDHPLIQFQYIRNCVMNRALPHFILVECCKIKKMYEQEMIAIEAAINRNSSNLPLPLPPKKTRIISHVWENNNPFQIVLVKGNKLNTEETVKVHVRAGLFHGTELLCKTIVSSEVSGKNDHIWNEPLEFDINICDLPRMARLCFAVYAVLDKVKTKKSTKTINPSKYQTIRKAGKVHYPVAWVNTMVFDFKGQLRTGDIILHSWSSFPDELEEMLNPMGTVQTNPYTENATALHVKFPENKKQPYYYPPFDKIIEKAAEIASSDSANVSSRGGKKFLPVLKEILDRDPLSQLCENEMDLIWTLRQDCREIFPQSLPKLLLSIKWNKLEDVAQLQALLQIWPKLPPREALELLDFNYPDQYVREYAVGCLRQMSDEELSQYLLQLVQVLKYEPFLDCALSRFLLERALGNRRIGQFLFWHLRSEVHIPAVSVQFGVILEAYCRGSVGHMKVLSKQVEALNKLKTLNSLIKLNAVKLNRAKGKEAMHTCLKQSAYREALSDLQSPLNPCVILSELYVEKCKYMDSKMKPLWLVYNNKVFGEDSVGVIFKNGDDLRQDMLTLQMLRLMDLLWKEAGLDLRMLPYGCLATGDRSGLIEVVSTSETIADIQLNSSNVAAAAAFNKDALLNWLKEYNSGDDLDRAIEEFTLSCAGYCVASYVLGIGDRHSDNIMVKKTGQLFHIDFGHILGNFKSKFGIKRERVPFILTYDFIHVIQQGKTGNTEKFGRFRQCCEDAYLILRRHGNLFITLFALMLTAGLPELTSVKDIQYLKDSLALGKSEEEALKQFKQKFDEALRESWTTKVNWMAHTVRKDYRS
PI3Kβ, sequence (P27986 whole entry partner, the tested form may be a part, canonical isoform): as the sequence (P27986 whole entry partner, canonical isoform) above

IC50 [1]	IC50 [2]	half-life at 2 μM [3]	EC50 ([4]; class symbol)	EC50 ([4]; geometric mean)	t1/2 ([5]; class symbol)	t1/2 ([5]; Table 3)	SMILES
0.5 nM	1 nM	10 h					C[C@H](Nc1nc(N)nc(N)c1C#N)c1nc2c(Cl)ccc(Cl)c2c(=O)n1-c1ccc(N)nc1 [Compound 84, (S)-2,4-diamino-6-((1-(3-(6-aminopyridin-3-yl)-5,8-dichloro-4-oxo-3,4-dihydroquinazolin-2-yl)ethyl)amino)pyrimidine-5-carbonitrile]
0.6 nM	0.8 nM	> 10 h					CC[C@H](Nc1nc(N)nc(N)c1C#N)c1nc2cccc(Cl)c2c(=O)n1-c1ccc(N)nc1 [Compound 87, (S)-2,4-diamino-6-((1-(3-(6-aminopyridin-3-yl)-5-chloro-4-oxo-3,4-dihydroquinazolin-2-yl)propyl)amino)pyrimidine-5-carbonitrile]
0.5 nM			< 1 nM	0.4 nM	***** (***** = >10 h)	>10 h	Cc1c(F)cncc1-n1c([C@H](C)Nc2nc(N)nc(N)c2C#N)nc2cccc(Cl)c2c1=O (atropisomer, axis not shown) [Compound 47, (S)-2,4-diamino-6-(1-(5-chloro-3-(5-fluoro-4-methylpyridin-3-yl)-4-oxo-3,4-dihydroquinazolin-2-yl)ethylamino)pyrimidine-5-carbonitrile]
3 nM	9 nM	> 10 h					C[C@H](Nc1nc(N)nc(N)c1Cl)c1nc2cccc(Cl)c2c(=O)n1-c1ccc(N)nc1 [Compound 85, (S)-3-(6-aminopyridin-3-yl)-5-chloro-2-(1-((2,6-diamino-5-chloropyrimidin-4-yl)amino)ethyl)quinazolin-4(3H)-one]
0.5 nM	1 nM	10 h					Cc1cc(N)ncc1-n1c([C@H](C)Nc2nc(N)nc(N)c2C#N)nc2cccc(Cl)c2c1=O (atropisomer, axis not shown) [Compound 94, (S)-2,4-diamino-6-((1-(3-(6-amino-4-methylpyridin-3-yl)-5-chloro-4-oxo-3,4-dihydroquinazolin-2-yl)ethyl)amino)pyrimidine-5-carbonitrile]
4 nM	28 nM						Cc1cc(N)ncc1-n1c([C@H](C)Nc2nc(N)nc(N)c2C#N)nc2c(Cl)ccc(Cl)c2c1=O (atropisomer, axis not shown) [Compound 95, (S)-2,4-diamino-6-((1-(3-(6-amino-4-methylpyridin-3-yl)-5,8-dichloro-4-oxo-3,4-dihydroquinazolin-2-yl)ethyl)amino)pyrimidine-5-carbonitrile]
0.8 nM	1 nM	4 h					CC[C@H](Nc1nc(N)nc(N)c1C#N)c1nc2cccc(Cl)c2c(=O)n1-c1cnc(N)cc1C (atropisomer, axis not shown) [Compound 92, (S)-2,4-diamino-6-((1-(3-(6-amino-4-methylpyridin-3-yl)-5-chloro-4-oxo-3,4-dihydroquinazolin-2-yl)propyl)amino)pyrimidine-5-carbonitrile]
6 nM	11 nM	> 10 h					C[C@H](Nc1nc(N)nc(N)c1Cl)c1nc2c(F)ccc(Cl)c2c(=O)n1-c1ccc(N)nc1 [Compound 88, (S)-3-(6-aminopyridin-3-yl)-5-chloro-2-(1-((2,6-diamino-5-chloropyrimidin-4-yl)amino)ethyl)-8-fluoroquinazolin-4(3H)-one]
8 nM	11 nM						C[C@H](Nc1nc(N)nc(N)c1C#N)c1nc2ccc(F)c(Cl)c2c(=O)n1-c1ccc(N)nc1 [Compound 101, (S)-2,4-diamino-6-((1-(3-(6-aminopyridin-3-yl)-5-chloro-6-fluoro-4-oxo-3,4-dihydroquinazolin-2-yl)ethyl)amino)pyrimidine-5-carbonitrile]
2 nM	460 nM						C[C@H](Nc1ncnc(N)c1C#N)c1nc2cccc(Cl)c2c(=O)n1-c1cncc(N)c1 [Compound 109, (S)-4-amino-6-((1-(3-(5-aminopyridin-3-yl)-5-chloro-4-oxo-3,4-dihydroquinazolin-2-yl)ethyl)amino)pyrimidine-5-carbonitrile]
31 nM	180 nM						Nc1ccc(-n2c([C@@H](Nc3nc(N)nc(N)c3Cl)C3CC3)nc3c(F)ccc(Cl)c3c2=O)cn1 [Compound 106, (S)-3-(6-aminopyridin-3-yl)-5-chloro-2-(cyclopropyl((2,6-diamino-5-chloropyrimidin-4-yl)amino)methyl)-8-fluoroquinazolin-4(3H)-one]
9 nM	41 nM						CCC[C@H](Nc1nc(N)nc(N)c1C#N)c1nc2ccc(F)c(Cl)c2c(=O)n1-c1ccc(N)nc1 [Compound 105, (S)-2,4-diamino-6-((1-(3-(6-aminopyridin-3-yl)-5-chloro-6-fluoro-4-oxo-3,4-dihydroquinazolin-2-yl)butyl)amino)pyrimidine-5-carbonitrile]
1 nM	3 nM	4 h					Cc1cc(N)ncc1-n1c([C@H](C)Nc2nc(N)nc(N)c2C#N)nc2c(Cl)ccc(Cl)c2c1=O (atropisomer, axis not shown) [Compound 96, (S)-2,4-diamino-6-((1-(3-(6-amino-4-methylpyridin-3-yl)-5,8-dichloro-4-oxo-3,4-dihydroquinazolin-2-yl)ethyl)amino)pyrimidine-5-carbonitrile]
1 nM	3 nM						N#Cc1c(N)nc(N)nc1N[C@H](c1nc2c(F)ccc(Cl)c2c(=O)n1-c1ccc(N)nc1)C1CC1 [Compound 107, (S)-2,4-diamino-6-(((3-(6-aminopyridin-3-yl)-5-chloro-8-fluoro-4-oxo-3,4-dihydroquinazolin-2-yl)(cyclopropyl)methyl)amino)pyrimidine-5-carbonitrile]
1 nM	3 nM						CCC[C@H](Nc1nc(N)nc(N)c1C#N)c1nc2cccc(Cl)c2c(=O)n1-c1ccc(N)nc1 [Compound 103, (S)-2,4-diamino-6-((1-(3-(6-aminopyridin-3-yl)-5-chloro-4-oxo-3,4-dihydroquinazolin-2-yl)butyl)amino)pyrimidine-5-carbonitrile]
5 nM	5 nM	> 10 h					C[C@H](Nc1nc(N)nc(N)c1C#N)c1nc2c(Cl)cc(F)cc2c(=O)n1-c1ccc(N)nc1 [Compound 82, (S)-2,4-diamino-6-((1-(3-(6-aminopyridin-3-yl)-8-chloro-6-fluoro-4-oxo-3,4-dihydroquinazolin-2-yl)ethyl)amino)pyrimidine-5-carbonitrile]
0.8 nM	0.7 nM	> 10 h					C[C@H](Nc1nc(N)nc(N)c1C#N)c1nc2cccc(Cl)c2c(=O)n1-c1ccc(N)nc1 [Compound 97, (S)-2,4-diamino-6-((1-(3-(6-aminopyridin-3-yl)-5-chloro-4-oxo-3,4-dihydroquinazolin-2-yl)ethyl)amino)pyrimidine-5-carbonitrile]
640 nM	3600 nM						Cc1cc(N)ncc1-n1c([C@@H](Nc2nc(N)nc(N)c2C#N)C2CC2)nc2c(Cl)ccc(Cl)c2c1=O (atropisomer, axis not shown) [Compound 99, (S)-2,4-diamino-6-(((3-(6-amino-4-methylpyridin-3-yl)-5,8-dichloro-4-oxo-3,4-dihydroquinazolin-2-yl)(cyclopropyl)methyl)amino)pyrimidine-5-carbonitrile]
2 nM	30 nM						Cc1cc(N)ncc1-n1c([C@H](C)Nc2nc(N)nc(N)c2C#N)nc2cccc(Cl)c2c1=O (atropisomer, axis not shown) [Compound 93, (S)-2,4-diamino-6-((1-(3-(6-amino-4-methylpyridin-3-yl)-5-chloro-4-oxo-3,4-dihydroquinazolin-2-yl)ethyl)amino)pyrimidine-5-carbonitrile]
